Measured values as given in patent US5942503A, “Use of Epinastine for the treatment of pain” (Boehringer Indelheim KG, priority 1995, dated 1999).
Values joined by “and” are separate entries in the source; they are usually repeats but may differ in a detail not shown here. Equal values may be shown once. Where a name gives a salt, the structure may show the parent alone. Read-outs that look alike come from different tables or passages of the source. Values belong to the compound of their own block, whether it stands above or below them.

Experiments:
rat 5HT7 receptor = target: T1, rat 5HT7 receptor (Rattus norvegicus, UniProt P32305); experiment: Binding of [3H] LSD to rat 5HT7 receptor expressed in CHO cells
T1 construct: expressed in transfected cells; host or cells: CHO cells
T1 sequence (P32305 whole entry): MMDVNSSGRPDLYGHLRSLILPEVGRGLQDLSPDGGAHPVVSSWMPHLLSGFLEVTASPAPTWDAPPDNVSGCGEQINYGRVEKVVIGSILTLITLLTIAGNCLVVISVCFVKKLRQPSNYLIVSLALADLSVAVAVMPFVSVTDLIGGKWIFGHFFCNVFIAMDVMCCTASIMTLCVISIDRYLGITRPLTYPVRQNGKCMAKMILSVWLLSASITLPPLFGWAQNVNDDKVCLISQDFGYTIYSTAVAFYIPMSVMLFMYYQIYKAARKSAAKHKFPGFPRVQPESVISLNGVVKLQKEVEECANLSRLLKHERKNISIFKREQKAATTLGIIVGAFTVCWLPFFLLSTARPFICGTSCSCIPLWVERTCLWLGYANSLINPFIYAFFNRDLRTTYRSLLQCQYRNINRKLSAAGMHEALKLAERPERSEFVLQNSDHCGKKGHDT
Description: Binding of 2.0 nM [^3 H] LSD to a rat 5HT7 receptor expressed in CHO cells was measured for 60 minutes at 37° C. in 50 mM Tris-HCl buffer, pH 7.4, containing 10 mM MgCl2 and 0.5 mM EDTA. The reaction was terminated by rapid vacuum filtration onto glass fiber filters pretreated with 0.1% polyethyleneimine. Binding studies were made in duplicate in the absence of the drug and in the presence of between 6 and 8 concentrations of epinastine between 3 nM and 10 μM. Radioactivity trapped on the filters in the presence of each drug concentration was measured and compared with control values in order to ascertain interaction of the drug with the cloned 5-HT7 receptor site. Non-specific binding was determined in the presence of 5-carboxamidotryptamine (5-CT). The IC50 for the displacement of radiolabelled ligand was determined by graphical extrapolation and Ki values were calculated after correction for the radioligand occupancy shift by the Cheng and Prusoff equation (see Biochem. Pharmacol. 22, (1973): 3099-3108). Three experiments were carried out.

Male Wistar rats = tested on: Male Wistar rats
Description: Male Wistar rats weighing 175-190 g were anaesthetised with nembutal 50 mg/kg i.p. and the jugular vein was cannulated for injection of drugs. The animals were placed in a stereotaxic frame. Symmetrical boreholes were drilled 3.0 mm laterally and 3.2 mm posteriorly from bregma and the electrodes were lowered 9.5 mm from dura mater. The test compound epinastine or control solution were administered intravenously 10 min prior to electrical stimulation of the right trigeminal ganglion (5 min; 2.0 mA, 5 Hz, 5 ms duration and Evans blue (30 mg/kg i.v.), was given 5 min prior to electrical stimulation as a marker of plasma protein extravasation. 15 minutes after the end of the stimulation period the animals were perfused with 50 ml saline via the left cardiac ventricle to remove intravascular Evans blue. The dura mater was removed, blotted dry and weighed. Tissue Evans blue was extracted in 0.3 ml formamide at 50° C. for 24 h. Dye concentrations were measured with a spectrophotometer at 620 nm wavelength, interpolated on a standard curve and expressed as ng Evans blue content per mg tissue weight.
Extravasation was expressed as the quotient calculated by dividing the Evan's blue content of the stimulated side by the Evan's blue content of the unstimulated side. Results are expressed as means.

[1] = tested on: rats of the strain Chbb:THOM; experiment: animal or person; conditions: for Mean value of pain threshold: 3 hours after yeast
Description: The method of Randall and Selitto was modified through use of the Analgesia meter by Basile of Milan.
Groups of 10 fasted rats of the strain Chbb:THOM (weight 110-140 g, 5 male 5 female) were dosed orally with it Natrosol 250 HX, 1 ml/100 g body weight, containing 0, 0.3, 1.0, 3.0 or 10 mg/kg epinastine (racemic mixture). 1 hour later the rats were injected subplantar with a suspension of yeast cells in a volume 0.1 ml into the right hind paw. 3 hours after injection of the yeast suspension, the pain threshold was determined by increasing the pressure on the inflamed paw until a sign of pain was produced. From the pain threshold measured after the different doses of the epinastine, linear regression analysis was used to determine an ED50.

[2] = individual values of the three experiments, read-out: Measured Ki values
[3] = mean of three experiments, 2.0 nM [3H] LSD, 60 minutes at 37° C., read-out: mean Ki value

SMILES: NC1=NCC2c3ccccc3Cc3ccccc3N12 (racemic) [Epinastine, 3-amino-9,13b-dihydro-1H-dibenz[c,f]-imidazo[5,1-a]azepine hydrochloride]
Ki (rat 5HT7 receptor; Measured Ki values, individual values of the three experiments): 27 nM and 41 nM and 30 nM | Ki (rat 5HT7 receptor; mean Ki value, mean of three experiments, 2.0 nM [3H] LSD, 60 minutes at 37° C.): 33 nM | Quotient stimulated/non-stimulated side, mean (Male Wistar rats; epinastine 10 μg/kg i.v., mean of 7 animals (control mean 1.25)): 0.98 | Evans blue extravasation induced by electrical stimulation of the trigeminal ganglion (Male Wistar rats; result in words): significantly reduced | % Increase of pain threshold ([1]; 0.3 mg/kg p.o.): 9.6% | Mean value of pain threshold ([1]; 0.3 mg/kg p.o.): 164.8 g/hind paw | % Increase of pain threshold ([1]; 1.0 mg/kg p.o.): 56.4% | Mean value of pain threshold ([1]; 1.0 mg/kg p.o.): 235.2 g/hind paw | % Increase of pain threshold ([1]; 3.0 mg/kg p.o.): 72.5% | Mean value of pain threshold ([1]; 3.0 mg/kg p.o.): 259.4 g/hind paw | % Increase of pain threshold ([1]; 10.0 mg/kg p.o.): 81.4% | Mean value of pain threshold ([1]; 10.0 mg/kg p.o.): 272.8 g/hind paw | ED50 ([1]; Rattus norvegicus, po, read-out: ED50, dose required to increase the pain threshold by 50%): 1.1 mg/kg | pain threshold in inflamed rat paw ([1]; result in words): increased the pain threshold

SMILES: NC1=NCC2c3ccccc3Cc3ccccc3N12 (single isomer, unassigned; (+)) [Epinastine (+) Enantiomer, (+)-3-Amino-9,13b-dihydro-1H-dibenz-[c,f]-imidazo[1,5a]-azepine-hydrochloride]
Ki (rat 5HT7 receptor; [2]): 45 nM and 18 nM and 22 nM | Ki (rat 5HT7 receptor; [3]): 28 nM

Ki (rat 5HT7 receptor; [2]): 406 nM and 572 nM and 331 nM
SMILES: CN1CCC(=C2c3ccccc3CC(=O)c3sccc32)CC1 [Ketotifen]

SMILES: NC1=NCC2c3ccccc3Cc3ccccc3N12 (single isomer, unassigned; (-)) [Epinastine (-) Enantiomer, (-)-3-Amino-9,13b-dihydro-1H-dibenz-[c,f]-imidazo[1,5a]-azepine-hydrochloride]
Ki (rat 5HT7 receptor; [2]): 155 nM and 204 nM and 207 nM | Ki (rat 5HT7 receptor; [3]): 189 nM

Ki (rat 5HT7 receptor; [2]): 2660 nM and 747 nM and 1330 nM
SMILES: COc1ccc(CN(CCN(C)C)c2ccccn2)cc1 [Mepyramine]
